What was measured:
[1] = Soluble copper versus pH on titration of TBCC mother liquor with NH4OH; type: physicochemical; details: pH about 5.6, room temperature, ammonium chloride mother liquor
Experimental: The starting material used for this example was mother liquor remaining after the production of tribasic copper chloride (TBCC) from spent circuit board chemical etchants. The particular sample of mother liquor was slightly acidic, contained several hundred grams per liter of ammonium chloride and about 12 g/L of dissolved copper. The series of tests were conducted at room temperature. A 400 mL sample was titrated with NH4OH solution having a specific gravity of 0.93 and containing about 16% NH3 by weight. The pH and soluble copper concentrations were measured after each increment of NH4OH solution added. The results are illustrated in FIG. 4. Precipitation of copper initiated at a pH of about 4.1 and continued until the pH reached about 5.5. It was apparent that the copper amine chloride salt was forming at least within the pH range of 4.5 to 5.6. As expected from the stoichiometry of Equation 3, about 1 mole of copper was precipitated for every 2 moles of ammonia added. For this particular series of tests, the minimum solubility of copper was about 1,000 mg/L at a pH of about 5.6. As more ammonium hydroxide was added to raise the pH above 5.6, the copper amine chloride salt dissolved to form a navy blue soluble copper tetrammine complex. At a pH above about 7.2 virtually all of the copper ammine chloride salt had dissolved. […]

[2] = system: male avian broiler chicks; experiment: Bioavailability of zinc in chicks fed a zinc-free basal corn-soybean diet plus zinc source, 20-day experiment; type: in vivo
Experimental: An experiment was conducted to compare the bioavailability of zinc from zinc diammine chloride (ZDC or Zn(NH3)2Cl2) with that of reagent grade zinc sulfate heptahydrate (ZSH or ZnSO4.7H2O). A zinc-free basal corn-soybean diet was formulated. The zinc sources were added to the basal diet at doses of 4 mg Zn per kg and 8 mg Zn per kg. The basal and experimental diets were mixed using a horizontal mixer for basal diet and a Hobart mixer for individual treatments. All diets were fed as a mash feed. Eighty male avian broiler chicks were used in the 20-day experiment. The test birds were randomly divided into 20 pens of 4 birds each. The birds were housed in thermostatically controlled, stainless steel battery cages with raised wire flooring in an environmentally controlled facility. Environmental conditions for the birds (i.e., floor space, temperature, lighting, feeder and water space) were similar for all test groups. The chicks were pretested for the first three days after hatching; and then they were switched to the basal diet until the start of the study at day eight. Water that had been deionized and distilled and feed was available for ad libitum consumption.
All feed added to the pens was recorded. Feed was weighed back at the conclusion of the trial and the feed intake was calculated. The ratio of weight gain to feed consumed was calculated for the period using the average weight gain of birds per treatment divided by the average feed consumption for the treatment throughout the test period.

Row | SMILES | minimum solubility of copper [1] | improvement of overall weight gain compared to the control ([2]; 4 mg Zn per kg feed) | improvement of weight gain per unit of feed compared to the control ([2]; 4 mg Zn per kg feed) | improvement of overall weight gain compared to the control ([2]; 8 mg Zn per kg feed) | improvement of weight gain per unit of feed compared to the control ([2]; 8 mg Zn per kg feed) | Feed Intake ([2]; Zn 4 mg/kg added to basal diet) | Gain:Feed ([2]; Zn 4 mg/kg added to basal diet) | Weight Gain ([2]; Zn 4 mg/kg added to basal diet) | Feed Intake ([2]; Zn 8 mg/kg added to basal diet) | Gain:Feed ([2]; Zn 8 mg/kg added to basal diet) | Weight Gain ([2]; Zn 8 mg/kg added to basal diet)
1 | N.N.[Cl][Cu][Cl] [CDC, copper diammine chloride] | about 1,000 mg/L | – | – | – | – | – | – | – | – | – | –
2 | N.N.[Cl][Zn][Cl] [ZDC, zinc diammine chloride] | – | about 37% | about 24% | ~75% | ~28% | 189.8 g/chick | 523 g/kg | 99.3 g/chick | 235.3 g/chick | 538 g/kg | 126.5 g/chick
3 | O.O.O.O.O.O.O.O=S(=O)([O-])[O-].[Zn+2] [ZnSO4•7H2O, zinc sulfate heptahydrate, reference compound] | – | – | – | – | – | 201.8 g/chick | 497 g/kg | 100.5 g/chick | 233.5 g/chick | 514 g/kg | 119.8 g/chick
